In ChEMBL document CHEMBL1125857, “Synthesis of substrate-based inhibitors of HMG CoA reductase (II)” (Bioorg Med Chem Lett, 1991):

target: T1, 3-hydroxy-3-methylglutaryl-coenzyme A reductase (Rattus norvegicus, UniProt P51639); test: Compound was tested for inhibitory activity against rat hepatic microsomal HMG-CoA reductase; lacked significant inhibitory activity; conditions: read-out: I50
T1 sequence (P51639 whole entry): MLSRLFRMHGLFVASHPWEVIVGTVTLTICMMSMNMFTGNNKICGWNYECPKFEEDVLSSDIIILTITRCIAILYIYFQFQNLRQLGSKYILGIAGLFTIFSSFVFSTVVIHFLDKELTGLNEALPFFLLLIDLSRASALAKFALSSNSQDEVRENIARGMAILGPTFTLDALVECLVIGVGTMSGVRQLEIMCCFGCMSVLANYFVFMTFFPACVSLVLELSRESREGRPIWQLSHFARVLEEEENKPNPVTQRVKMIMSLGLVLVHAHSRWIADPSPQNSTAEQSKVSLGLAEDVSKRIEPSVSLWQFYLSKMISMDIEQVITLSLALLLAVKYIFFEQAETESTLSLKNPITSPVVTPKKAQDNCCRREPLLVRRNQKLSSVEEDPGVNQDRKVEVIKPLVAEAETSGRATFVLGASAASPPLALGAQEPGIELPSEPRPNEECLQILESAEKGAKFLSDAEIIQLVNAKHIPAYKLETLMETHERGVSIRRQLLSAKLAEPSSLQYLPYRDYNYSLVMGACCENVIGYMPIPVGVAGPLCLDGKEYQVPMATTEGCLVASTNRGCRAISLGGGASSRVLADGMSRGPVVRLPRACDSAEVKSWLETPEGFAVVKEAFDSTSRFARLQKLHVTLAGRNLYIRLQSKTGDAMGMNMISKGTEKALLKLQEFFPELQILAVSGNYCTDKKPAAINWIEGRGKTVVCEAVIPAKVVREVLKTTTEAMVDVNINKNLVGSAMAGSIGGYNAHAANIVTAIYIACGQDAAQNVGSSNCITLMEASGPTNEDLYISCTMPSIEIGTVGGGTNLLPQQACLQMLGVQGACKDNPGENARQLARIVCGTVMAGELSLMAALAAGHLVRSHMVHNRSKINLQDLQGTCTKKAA

IC50, > 1000 µM:
CC(C)[C@@H](O)C(=O)NCCC(=O)NCCNCC(O)CC(O)CC(=O)O (stereo partly drawn)
CC(C)[C@@H](O)C(=O)NCCC(=O)NCCNC(=O)C[C@@H](O)CC(=O)O
CC(C)[C@@H](O)C(=O)NCCC(=O)NCCNC(=O)C[C@@](C)(O)CC(=O)O
